Source: US6376536B1, “Quaternary ammonium salts and their use” (Takeda Chemical Industries, Ltd., priority 1998, dated 2002)
Structures can show the parent of a compound that is named as a salt. Each block holds one compound with its values, some of them ahead of it.

How the values were obtained:
HIV-1 BA-L [1] = test: Inhibitory effect on HIV-1 infection to MAGI-CCR5 cell; type: cell-based; details: Human immunodeficiency virus 1, BAL, 48 h; 0.064 μM Test Compound medium; MAGI-CCR5 cells; 300 PFU HIV-1 BA-L; 2 days; blue cell count
Experimental: The plasmid where β-galactosidase gene was ligated downstream of HIV-1 LTR was introduced into CD4 positive HeLa cell, to which human CCR5 was further introduced to obtain transformant MAGI-CCR5. By using said transformant MAGI-CCR^5, degree of HIV-1 infection was calculated from β-galactosidase activity (blue color due to decomposition of 5-bromo-4-chloro-3-indolyl-β-D-galactopyranoside). Specifically, MAGI-CCR5 cells were suspended in DMEM medium containing 10% serum to prepare 5×10^4 cells/ml suspension. To each well of 96 well plate was inoculated 200 μl of the suspension, and the cells were cultivated at 37° C. overnight. The medium was removed by means of suction, and to the residue was added 100 μl of the above medium containing 0.064 μM of Test Compound and 100 μl of the above medium containing 300 PFU of HIV-1 BA-L cells. The cells were cultivated at 37° C. for 2 days. The medium was removed by means of suction. To the residue was added 200 μl of cell fixative (PBS containing 1% formaldehyde and 0.2% glutaraldehyde), and the mixture was allowed to stand at room temperature for 5 minutes and washed twice with PBS. […] The number of blue cells was counted by microscope and defined as the number of cells infected with HIV-1.

HIV-1 BA-L [2] = test: Inhibitory effect on HIV-1 infection to human PBMC (p24 antigen ELISA); type: cell-based; details: Human immunodeficiency virus 1, BAL, 0.032 μM Test Compound solution, p24 antigen in supernatant
Experimental: From normal person human peripheral blood mononuclear cells (PBMC) were separated, and the cells were stimulated with 10 μg/ml of PHA (Phytohemaglutinin) and 20 U/ml of interleukin-2 (IL-2) for 3 days. The cells were suspended in RPMI-1640 medium containing 20% serum to prepare 1×10 ^6/ml suspension. To the suspension were infected HIV-1 BA-L cells (20 ng as an amount of p24 antigen), and viruses were absorbed at 37° C. for 2 hours. The cells were washed and suspended in RPMI-1640 medium containing 20% serum and IL-2 20 U/ml to prepare 1×10^5/ml suspension. To the PBMC suspension was added the same amount of a solution which contains 0.032 μM of Test Compound, and the cells were cultivated at 37° C. in carbon dioxide gas incubator. The amount of p24 antigen in supernatant of the cultivated medium was determined by enzyme-linked immunosorbent assay (ELISA) and defined as degree of HIV-1 infection.

human CCR5 = biological target: T1, human CCR5 (Homo sapiens, UniProt P51681); test: [125I]-RANTES binding inhibition on CHO/CCR5 cells; details: Test Compound 1 μM, 100 pM [125I]-RANTES
T1 construct: expressed in transfected cells; plasmid pCKR5 = pcDNA3.1 with about 1.0 kb CCR5 insert
Experimental: CHO-K1 cells were grown in 750 ml of tissue culture flask (Becton Dickinson) using Ham's F12 medium (Nihon Pharmaceutical) containing 10% fetal calf serum (Life Tech Oriental) and took off with 0.5 g/L trypsin-0.2 g/L EDTA (Life Tech Oriental). The cells were washed with PBS (Life Tech Oriental), centrifuged (1000 rpm, 5 minutes), and suspended in PBS. With using Gene Pulser (Bio-Rad Laboratories), DNA was introduced into the cells under the conditions shown below. That is, to the cuvette of 0.4 cm gap were added 8×10^6 cells and 10 μg of plasmid pCKR5 for expression of human CCR5, and electroporation was carried out under 0.25 kV of voltage and 960 μF. of capacitance. The cells where transferred into Ham's F12 medium (Nihon Pharmaceutical) containing 10% fetal calf serum, and cultivated for 24 hours. The cells were again took off and centrifuged, and suspended in Ham's F12 medium (Nihon Pharmaceutical) containing 10% fetal calf serum and 500 μg/ml of geneticin (Life Tech Oriental). […] Radioactivity was determined with γ-counter to select CHO/CCR5 cells which specifically bind to the ligand.
The CHO/CCR5 were inoculated on 96 well microplate (5×10^4 cells/well) and cultivated for 24 hours. […] Radio-activity was determined with TopCount Micro Scintillation Counter (Packard Instrument, Inc.). […]

T1 sequence (P51681 whole entry): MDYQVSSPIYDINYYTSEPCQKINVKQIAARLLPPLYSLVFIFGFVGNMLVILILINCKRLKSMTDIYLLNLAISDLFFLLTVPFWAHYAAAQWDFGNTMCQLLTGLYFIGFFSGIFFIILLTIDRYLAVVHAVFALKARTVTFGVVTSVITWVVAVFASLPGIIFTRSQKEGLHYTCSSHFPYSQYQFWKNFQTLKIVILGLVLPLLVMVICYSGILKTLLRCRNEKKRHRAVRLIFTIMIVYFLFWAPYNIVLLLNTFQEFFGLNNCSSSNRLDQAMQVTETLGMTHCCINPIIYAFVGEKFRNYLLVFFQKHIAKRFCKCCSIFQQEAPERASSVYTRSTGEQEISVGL

melting point: 200 to 204 °C
Structure (SMILES): CCOc1ccc(-c2ccc3c(c2)C=C(C(=O)Nc2ccc(C[N+](C)(C)C4CCOCC4)cc2)CCO3)cc1 (as salt: chloride) [Compound 3, N-(4-(((7-(4-ethoxyphenyl)-2,3-dihydro-1-benzoxepin-4-yl)carbonyl)amino)benzyl)-N,N-dimethyl-N-(4-tetrahydropyranyl)ammonium chloride]

Structure (SMILES): Cc1ccc(-c2ccc3c(c2)C=C(C(=O)Nc2ccc(C[N+](C)(C)C4CCOCC4)cc2)CCC3)cc1 [Compound 1, N,N-dimethyl-N-(4-(((2-(4-methylphenyl)-6,7-dihydro-5H-benzocyclohepten-8-yl)carbonyl)amino)benzyl)-N-(4-tetrahydropyranyl)ammonium chloride]
inhibition at 0.064 µM (HIV-1 BA-L [1]): 100%
inhibition at 0.032 µM (HIV-1 BA-L [2]): 74%

Inhibition Rate (%) to CCR5 binding (human CCR5): 96%
Structure (SMILES): Cc1ccc(-c2ccc3c(c2)C=C(C(=O)Nc2ccc(C[N+](C)(C)C4CCC(=O)CC4)cc2)CCO3)cc1.[Cl-] [Compound 2]
